These results are taken from ChEMBL document CHEMBL1129353, “Synthesis and biological evaluation of N alpha-(4-amino-4-deoxy-10-methylpteroyl)-DL-4,4-difluoroornithine” (J Med Chem, 1996).

Data set [1] is described as follows: Dissociation constant was evaluated. Type of data set: physicochemical.
The target in data set [2] is T1, Folylpolyglutamate synthase, mitochondrial (Homo sapiens, UniProt Q05932).
T1 sequence (Q05932 whole entry): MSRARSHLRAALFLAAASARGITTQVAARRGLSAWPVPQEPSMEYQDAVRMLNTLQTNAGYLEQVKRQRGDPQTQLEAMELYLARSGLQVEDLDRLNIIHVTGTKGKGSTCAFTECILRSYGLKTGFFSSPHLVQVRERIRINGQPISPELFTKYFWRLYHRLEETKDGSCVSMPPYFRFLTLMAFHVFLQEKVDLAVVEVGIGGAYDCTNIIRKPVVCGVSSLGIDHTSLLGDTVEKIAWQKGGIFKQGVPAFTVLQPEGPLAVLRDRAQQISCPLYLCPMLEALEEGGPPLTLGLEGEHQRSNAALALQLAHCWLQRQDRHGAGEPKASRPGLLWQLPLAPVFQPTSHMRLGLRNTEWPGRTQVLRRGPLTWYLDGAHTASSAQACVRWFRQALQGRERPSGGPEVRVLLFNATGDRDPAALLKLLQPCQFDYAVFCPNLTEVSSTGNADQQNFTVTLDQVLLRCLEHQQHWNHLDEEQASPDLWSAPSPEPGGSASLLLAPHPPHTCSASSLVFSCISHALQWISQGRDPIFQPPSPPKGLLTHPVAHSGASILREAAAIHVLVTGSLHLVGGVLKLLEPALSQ
The experiment in a line: Inhibitory concentration against human Folyl-polyglutamate synthase isolated from CCRF-CEM human leukemia cells. In kind it is cell-free.

In data set [3] the test system is CCRF-CEM. The experiment in a line: Inhibitory activity against growth of CCRF-CEM human leukemia cells. value mentioned is from literature. To be noted: read-out: ED50. In kind it is functional.
The target of data set [4] is T2, Dihydrofolate reductase (Homo sapiens, UniProt P00374).
T2 sequence (P00374 whole entry): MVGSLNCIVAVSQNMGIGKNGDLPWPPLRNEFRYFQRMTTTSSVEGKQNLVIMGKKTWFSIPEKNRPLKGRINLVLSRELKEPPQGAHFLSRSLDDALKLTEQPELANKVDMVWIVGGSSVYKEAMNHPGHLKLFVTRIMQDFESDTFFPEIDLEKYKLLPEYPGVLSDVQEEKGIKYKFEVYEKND
Put plainly: Inhibitory concentration against dihydrofolate reductase enzyme (DHFR) enzyme isolated from CCRF-CEM human leukemia cells. In kind it is cell-free.

The target of data set [5] is T2, Dihydrofolate reductase. Put plainly: Inhibitory concentration against dihydrofolate reductase enzyme (DHFR) enzyme isolated from CCRF-CEM human leukemia cells. value mentioned is from literature.
The subject of data set [6] is CCRF-CEM. The experiment in a line: cells. To be noted: Homo sapiens, read-out: ED50.
In data set [7] the target is T1, Folylpolyglutamate synthase, mitochondrial. Put plainly: Inhibitory activity against mammalian Folyl-polyglutamate synthase.

As a reminder, the pKa is the negative logarithm of the acid dissociation constant. Read a low pKa as a group that gives up its proton readily. As a reminder, the IC50 is the concentration at which inhibition is half-maximal. The low end stands for inhibition by little substance, the high end for a need for much substance. As usually defined, the Ki is the dissociation constant of the complex between target and ligand, obtained from inhibition or displacement. Low readings indicate a stronger hold on the target, high ones a looser hold on the target.

`NCC(F)(F)CC(N)C(=O)O` (stereo unspecified) came in with a pKa in data set [1] of 6.9.
With `CN(Cc1cnc2nc(N)nc(N)c2n1)c1ccc(C(=O)NC(CCCN)C(=O)O)cc1` (stereo unspecified), in data set [1], the pKa is 10.8. Besides, the figures for the IC50 (in data set [2]; at Dihydrofolate reductase [4]; on Dihydrofolate reductase [5]) were 33000 nM, 2.5 nM and 1 nM, respectively. The EC50 with CCRF-CEM [3] and in the data set on CCRF-CEM [6] was 740 nM in each case.
Consider `CN(Cc1cnc2nc(N)nc(N)c2n1)c1ccc(C(=O)NC(CC(F)(F)CN)C(=O)O)cc1` (stereo unspecified), for which the half-inhibitory concentration (IC50) is more than 300000 nM in data set [2] and 1.3 nM against Dihydrofolate reductase [4]. Moreover, the EC50 in the data set with CCRF-CEM [6] was found to be 93 nM.
With `NCCCC(NC(=O)c1ccc(NCC2CNc3nc(N)[nH]c(=O)c3N2)cc1)C(=O)O` (stereo unspecified), the affinity in data set [7], expressed as Ki, was 200 nM.
